{"source": "paper PMC5464911", "about": "“SEL120-34A is a novel CDK8 inhibitor active in AML cells with high levels of serine phosphorylation of STAT1 and STAT5 transactivation domains” (Oncotarget, 2017)", "key": {"CDK3/CycE1": {"target": "CDK3/CycE1 (Homo sapiens, UniProt Q00526)", "sequence (Q00526 whole entry)": "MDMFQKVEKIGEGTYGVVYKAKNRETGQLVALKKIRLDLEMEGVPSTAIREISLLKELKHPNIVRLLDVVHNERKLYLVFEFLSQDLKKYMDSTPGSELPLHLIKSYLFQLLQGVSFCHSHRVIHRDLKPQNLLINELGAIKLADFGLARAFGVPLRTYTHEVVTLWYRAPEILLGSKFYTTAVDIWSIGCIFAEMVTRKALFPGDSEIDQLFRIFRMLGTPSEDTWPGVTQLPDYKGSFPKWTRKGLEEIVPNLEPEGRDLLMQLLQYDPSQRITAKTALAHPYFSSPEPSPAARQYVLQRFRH", "sequence (P24864 whole entry partner)": "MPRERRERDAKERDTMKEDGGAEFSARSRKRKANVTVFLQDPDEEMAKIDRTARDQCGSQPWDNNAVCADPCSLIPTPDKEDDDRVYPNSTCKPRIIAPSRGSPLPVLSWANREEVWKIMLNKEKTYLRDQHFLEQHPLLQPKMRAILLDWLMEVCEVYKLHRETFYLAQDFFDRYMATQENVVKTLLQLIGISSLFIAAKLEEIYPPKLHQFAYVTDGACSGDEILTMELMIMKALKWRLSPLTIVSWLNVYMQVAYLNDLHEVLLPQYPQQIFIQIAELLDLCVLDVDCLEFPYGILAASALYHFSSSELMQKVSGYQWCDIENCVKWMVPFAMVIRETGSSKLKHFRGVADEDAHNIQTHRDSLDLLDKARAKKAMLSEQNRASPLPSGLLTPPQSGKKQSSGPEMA", "assay": "CDK family single point inhibition assay", "type": "biochemical", "settings": "Km ATP"}, "AML cell lines": {"system": "AML cell lines", "assay": "Broad profiling in a panel of AML cell lines (extended viability tests)", "type": "cell-based", "settings": "SKNO-1, KG-1, HEL-60, MOLM-16, MV-4-11, OciAML-2, MOLM-6 and OciAML-3; read-out: GI50 in sensitive responder cell lines", "method": "Mean GI50 (day 10) is shown and plotted on the graph (n=3). (D) Levels of phosphorylated STAT5 S726 and […] in AML cells from the panel C were measured by WB. Densitometry for STAT5 S726 and […] signals is shown and plotted on the graph. Cell lines from the panel D were divided into two classes based on the sensitivity to CDK8 inhibitors treatment (responders GI50<1 μM and non-responder GI50>1 μM), mean levels of STAT5 S726 (E) or STAT1 S727 (F) in selected cell lines measured by densitometry were presented on scatter plots. Differences between responder and non-responder were assessed by t-tests (p value is shown).\nCells grown in suspension were plated onto 96-well culture dishes in triplicate at 20000 cells per well in 200 μl of their culture medium, except Kasumi-1 cells, which were plated at 60 000/well. Cells were incubated in the presence of vehicle, 1 μM docetaxel (positive control, Santa Cruz Biotechnology) or 6 serially - diluted concentrations of tested compound. The compound effect was determined by AlamarBlue measurement. On days 3, 6-7 and 10, an equal volume from all wells was also split-back with fresh media supplemented with tested compound, resulting in a cell density for the vehicle well that matched the initial seeding density. […]"}, "IRF9 and STAT1 mRNA": {"system": "IRF9 and STAT1 mRNA", "assay": "IFN-responsive gene expression in HCT-116 and Colo-205 cells (qRT-PCR)", "type": "cell-based", "settings": "HCT-116 and Colo-205, 0.5 μM, IFNg treated cells, at least one early (0-3 h) and late (24 h-48 h) time point", "method": "Figure 3 SEL120-34A inhibits interferon- induced genes expression in a dose dependent manner (A) HCT-116 and Colo-205 cells were made quiescent overnight by decreasing FBS in medium to 0.5% and then preincubated with 0.5 μM SEL120-34A for 1 h followed by either IFNg (5 ng/mL) or IFNa (250 units/mL) stimulation in the presence of SEL120-34A. At the indicated time point, cells were harvested, RNA extracted and transcripts levels analyzed by the qRT-PCR reaction. The results were normalized for RPLP0 mRNA (means ±S.D., n=3). (B) Colo-205 cells were synchronized as in panel A and then challenged with increasing doses of SEL120-34A for 1 h followed by either 3 h IFNg ([…]) or 48 h IFNa (250 units/ml) stimulation. At this time RNA was extracted, DNAse I digested and subjected to the qRT-PCR reaction. […] Differences between mRNA levels for control and SEL120-34A at the indicated time points were assessed by t-tests. […]\n[…]"}, "CDK8/CycC": {"target": "CDK8/CycC (Homo sapiens, UniProt P49336)", "sequence (P49336 whole entry)": "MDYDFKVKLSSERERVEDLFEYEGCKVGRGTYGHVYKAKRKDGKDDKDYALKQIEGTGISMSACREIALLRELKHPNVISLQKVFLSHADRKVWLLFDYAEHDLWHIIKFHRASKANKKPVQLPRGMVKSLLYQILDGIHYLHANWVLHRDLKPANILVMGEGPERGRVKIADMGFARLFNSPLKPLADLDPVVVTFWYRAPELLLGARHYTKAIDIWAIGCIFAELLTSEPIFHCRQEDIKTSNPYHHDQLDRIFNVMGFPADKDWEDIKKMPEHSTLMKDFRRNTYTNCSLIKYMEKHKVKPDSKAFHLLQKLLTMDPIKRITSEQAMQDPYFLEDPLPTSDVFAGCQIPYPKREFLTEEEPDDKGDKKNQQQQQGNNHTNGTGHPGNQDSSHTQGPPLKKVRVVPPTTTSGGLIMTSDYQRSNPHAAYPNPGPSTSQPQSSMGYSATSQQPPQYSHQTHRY", "sequence (P24863 whole entry partner)": "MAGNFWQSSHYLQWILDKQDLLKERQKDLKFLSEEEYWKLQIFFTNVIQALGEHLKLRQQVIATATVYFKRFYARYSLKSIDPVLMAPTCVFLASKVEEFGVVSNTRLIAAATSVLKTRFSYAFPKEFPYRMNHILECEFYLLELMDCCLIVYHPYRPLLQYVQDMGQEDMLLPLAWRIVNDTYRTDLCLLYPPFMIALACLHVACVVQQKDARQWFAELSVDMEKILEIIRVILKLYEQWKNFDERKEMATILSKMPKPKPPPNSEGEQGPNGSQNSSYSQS", "assay": "CDK8 Eu kinase binding assay (LanthaScreen TR-FRET)", "design": "purchased ProQinase", "settings": "read-out: dissociation constant (Kd) for the CDK8 protein"}}, "note": "Read-outs that look alike come from different tables or passages of the source."}
{"smiles": "Cc1c(Br)c(Br)c2c3c1nc(N1CCNCC1)n3CCC2", "note": "[SEL120-34A]", "values": [{"measurement": "remaining activity at 1 µM", "setting": "CDK3/CycE1; mean, read-out: % remaining activity @1μM CDK3/CycE1 Mean", "result": 89, "unit": "%"}, {"measurement": "remaining activity at 1 µM", "setting": "CDK3/CycE1; repeat 1, read-out: % remaining activity @1μM CDK3/CycE1 repeat 1", "result": 97, "unit": "%"}, {"measurement": "remaining activity at 1 µM", "setting": "CDK3/CycE1; repeat 2, read-out: % remaining activity @1μM CDK3/CycE1 repeat 2", "result": 82, "unit": "%"}, {"measurement": "GI50", "setting": "AML cell lines", "result": "< 1000", "unit": "nM"}, {"measurement": "IRF9 and STAT1 mRNA expression", "setting": "IRF9 and STAT1 mRNA", "result": "significantly decreased"}, {"measurement": "Kd", "setting": "CDK8/CycC", "result": 3, "unit": "nM"}]}
